For 18 compounds, NOEL and NOAEL results are on record in EPA's ToxValDB 9.5 (doi:10.2903/j.efsa.2010.1337).

For series [1] the following is noted: subchronic; duration: 90 days.
Setting [2] is: subchronic, duration: 90 days, oral.

On to `CCC(S)SC(S)CC` (stereo not drawn) [1,1'-Sulfanediyldi(propane-1-thiol)], for which the NOEL in the series on Rattus norvegicus (setting [2]) was 0.7 mg/kg-day.

Compound `CC1SCCSS1` (stereo not drawn) [1,2,4-Trithiane, 3-methyl-] came in with an NOEL in the series with Rattus norvegicus (subchronic, duration: 90 days) of 0.3 mg/kg-day.

`CC(S)C(C)S` (stereo not drawn) [2,3-Butanedithiol] yielded an NOEL in the series on Rattus norvegicus (setting [2]) of 0.7 mg/kg-day.

With `Cc1ccccc1S` [2-Methylbenzenethiol], in the series with Rattus norvegicus (subchronic, duration: 90 days), the NOEL is 0.51 mg/kg-day.

Compound `CCC1SSC(CC)S1` (stereo not drawn) [3,5-Diethyl-1,2,4-trithiolane] showed an NOEL in the series on Rattus norvegicus (chronic, duration: 91 days) of 1.9 mg/kg-day.

Consider `CC1SSC(C)S1` (stereo not drawn) [3,5-Dimethyl-1,2,4-trithiolane], for which the NOEL in the series with Rattus norvegicus (chronic, duration: 91 days) worked out at 1.9 mg/kg-day.

Compound `CC=O` [Acetaldehyde] came in with an NOEL with Rattus norvegicus (short-term, duration: 28 days) of 125 mg/kg-day.

The compound `C=CCSSCCC` [Allyl propyl disulfide] came in with an NOEL with Rattus norvegicus (subchronic, duration: 90 days) of 4.6 mg/kg-day.

`CC(S)c1ccccc1` (stereo not drawn) [Benzenemethanethiol, .alpha.-methyl-]: in the series on Rattus norvegicus (subchronic, duration: 90 days), the NOEL worked out at 0.43 mg/kg-day.

On to `Cc1cccc(C)c1S` [Benzenethiol, 2,6-dimethyl-], for which the NOEL in the series on Rattus norvegicus (subchronic, duration: 90 days) was 0.43 mg/kg-day.

`COc1ccccc1S` [Benzenethiol, 2-methoxy-]: the NOEL in the series on Rattus norvegicus (subchronic, duration: 90 days) was found to be 0.51 mg/kg-day.

Turning to `C=CCSSSCC=C` [Diallyl trisulfide], in the series with Rattus norvegicus (subchronic, duration: 90 days), the NOEL came to 4.6 mg/kg-day.

What is called NOAEL is the highest tested level that showed no adverse finding. As to `C1CCC(SSC2CCCCC2)CC1` [Dicyclohexyl disulfide], the NOAEL in series [1] came to 0.23 mg/kg-day.

Turning to `CC(S)S` [Ethane-1,1-dithiol], in the series with Rattus norvegicus (short-term, duration: 28 days), the NOEL is 125 mg/kg-day.

In the series with Rattus norvegicus (chronic, duration: 2 years), `C=O` [Formaldehyde] displayed an NOEL of 15 mg/kg-day.

`SCS` [Methanedithiol] showed an NOEL in the series on Rattus norvegicus (chronic, duration: 2 years) of 15 mg/kg-day.

`CSCS` [Methylthiomethylmercaptan] registered an NOEL in the series with Rattus norvegicus (subchronic, duration: 90 days) of 0.3 mg/kg-day.

In turn, `C=CCSC[C@H](N)C(=O)O` [S-Allylcysteine] displayed an NOEL with Rattus norvegicus (short-term, duration: 28 days) of 250 mg/kg-day.
